These results are taken from publication PMC5020499, “Crystal structures of archaeal 2-oxoacid:ferredoxin oxidoreductases from Sulfolobus tokodaii” (Scientific Reports, 2016).

The target in the assay is T1, StOFOR2 (Sulfurisphaera tokodaii, UniProt Q96XT2+Q96XT4).
T1 construct: gene ST2435; recombinant in E. coli C43(DE3), genes from S. tokodaii genomic DNA in pOFORAB (pET-17b based), untagged; (ab)2 heterotetramer with TPP, Mg2+, [4Fe-4S]
Briefly: X-ray crystal structure, […] Å. In kind it is binding. The settings on record: crystal soaked with 50 mM pyruvate for 30 min; active site, unreacted pyruvate.

T1 sequence (Q96XT2 whole entry): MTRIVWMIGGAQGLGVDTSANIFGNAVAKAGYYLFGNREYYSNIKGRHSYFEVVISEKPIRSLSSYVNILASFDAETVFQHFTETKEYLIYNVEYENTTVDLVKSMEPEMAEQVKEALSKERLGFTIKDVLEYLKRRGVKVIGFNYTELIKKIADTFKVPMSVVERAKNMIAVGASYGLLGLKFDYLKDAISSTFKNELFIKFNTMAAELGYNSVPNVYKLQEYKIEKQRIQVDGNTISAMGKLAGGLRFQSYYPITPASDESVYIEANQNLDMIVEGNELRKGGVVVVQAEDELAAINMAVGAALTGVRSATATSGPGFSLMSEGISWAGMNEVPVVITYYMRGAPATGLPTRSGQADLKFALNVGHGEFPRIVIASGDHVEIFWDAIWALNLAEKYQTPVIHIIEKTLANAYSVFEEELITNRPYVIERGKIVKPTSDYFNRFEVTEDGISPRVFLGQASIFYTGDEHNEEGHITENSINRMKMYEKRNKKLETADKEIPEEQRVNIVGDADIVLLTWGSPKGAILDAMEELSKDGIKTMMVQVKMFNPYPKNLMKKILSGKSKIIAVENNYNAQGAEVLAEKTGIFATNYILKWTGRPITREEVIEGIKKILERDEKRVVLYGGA
T1 sequence (Q96XT4 whole entry): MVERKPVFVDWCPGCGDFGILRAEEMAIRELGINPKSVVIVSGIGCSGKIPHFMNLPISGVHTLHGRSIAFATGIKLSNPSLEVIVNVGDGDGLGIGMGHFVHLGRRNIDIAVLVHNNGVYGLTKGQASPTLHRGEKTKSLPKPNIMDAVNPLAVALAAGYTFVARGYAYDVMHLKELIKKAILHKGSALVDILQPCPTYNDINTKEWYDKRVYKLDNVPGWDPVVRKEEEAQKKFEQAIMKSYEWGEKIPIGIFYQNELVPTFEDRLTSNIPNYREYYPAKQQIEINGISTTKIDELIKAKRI

For the molecule `CC(=O)C(=O)O` [pyruvate], the “X-ray crystal structure, 2.2 Å” value was “we observed a separate density peak corresponding to the approximate size and shape of an unreacted pyruvate”.
